Read-outs that look alike come from different tables or passages of the source.
Tested on: 134 cancer cell lines
Test: Cell viability assay (ATPlite, 72 hours), IC50 on cancer cell line panel

Measured: IC50

CCN1CCN(c2ccc(Nc3cc(N(C)C(=O)Nc4c(Cl)c(OC)cc(OC)c4Cl)ncn3)cc2)CC1 [infigratinib]
0.525 µM: Rh30, read-out: IC50 in cell proliferation assay, cell line Rh30
5.37 µM: read-out: IC50 in cell proliferation assay, Hs 852.T cell line
2.99 µM: read-out: IC50 in cell proliferation assay, JAR cell line
0.014 µM: read-out: IC50 in cell proliferation assay, cell line RT-4 (FGFR3-TACC3)
3.51 µM: read-out: IC50 in cell proliferation assay, cell line DEL (NPM1-ALK)
0.625 µM: Homo sapiens, UMUC3, read-out: IC50 in cell proliferation assay, cell line UM-UC-3
0.039 µM: Homo sapiens, SW780, read-out: IC50 in cell proliferation assay, cell line SW780 (FGFR3-BAIAP2L1)
0.466 µM: Homo sapiens, NCCIT, read-out: IC50 in cell proliferation assay, NCC-IT cell line
4.38 µM: Homo sapiens, NCI-H2228, read-out: IC50 in cell proliferation assay, NCI-H2228 cell line (EML4-ALK)
3.21 µM: Homo sapiens, SK-N-MC, read-out: IC50 in cell proliferation assay, cell line SK-N-MC
5.09 µM: Homo sapiens, NCI-H1650, read-out: IC50 in cell proliferation assay, NCI-H1650 cell line (EGFR exon19del)
> 3.16 µM: Homo sapiens, MOLT-4, read-out: IC50 in cell proliferation assay, MOLT-4 cell line | Homo sapiens, MeWo, read-out: IC50 in cell proliferation assay, MeWo cell line | Homo sapiens, NCI-H82, read-out: IC50 in cell proliferation assay, cell line NCI-H82 | Homo sapiens, NCI-H460, read-out: IC50 in cell proliferation assay, NCI-H460 cell line | Homo sapiens, NCI-H661, read-out: IC50 in cell proliferation assay, NCI-H661 cell line | Homo sapiens, NCI-H1975, read-out: IC50 in cell proliferation assay, NCI-H1975 cell line (EGFR p.L858R + p.T790M) | Homo sapiens, OVCAR-3, read-out: IC50 in cell proliferation assay, cell line OVCAR-3 | Homo sapiens, PFSK-1, read-out: IC50 in cell proliferation assay, cell line PFSK-1 | Homo sapiens, RL95-2, read-out: IC50 in cell proliferation assay, cell line RL95-2 (EGFR p.A289V) | Homo sapiens, RPMI-7951, read-out: IC50 in cell proliferation assay, cell line RPMI-7951 (BRAF p.V600E) | Homo sapiens, RS4-11, read-out: IC50 in cell proliferation assay, cell line RS4;11 | Homo sapiens, SHP77, read-out: IC50 in cell proliferation assay, cell line SHP-77 | Homo sapiens, SK-BR-3, read-out: IC50 in cell proliferation assay, cell line SK-BR-3 (ERBB2 amplification) | Homo sapiens, SK-N-AS, read-out: IC50 in cell proliferation assay, cell line SK-N-AS | Homo sapiens, SK-N-FI, read-out: IC50 in cell proliferation assay, cell line SK-N-FI | Homo sapiens, SNU-5, read-out: IC50 in cell proliferation assay, cell line SNU-5 (MET amplification) | Homo sapiens, SNU-C2B, read-out: IC50 in cell proliferation assay, cell line SNU-C2B (EGFR p.R165Q) | Homo sapiens, SU-DHL-1, read-out: IC50 in cell proliferation assay, cell line SU-DHL-1 (NPM1-ALK) | Homo sapiens, SU-DHL-6, read-out: IC50 in cell proliferation assay, cell line SU-DHL-6 | Homo sapiens, SUP-T1, read-out: IC50 in cell proliferation assay, cell line SUP-T1 | Homo sapiens, SW48, read-out: IC50 in cell proliferation assay, cell line SW48 (EGFR p.G719S) | Homo sapiens, SW480, read-out: IC50 in cell proliferation assay, cell line SW480 | Homo sapiens, SW626, read-out: IC50 in cell proliferation assay, cell line SW626 | Homo sapiens, SW837, read-out: IC50 in cell proliferation assay, cell line SW837 | Homo sapiens, SW872, read-out: IC50 in cell proliferation assay, cell line SW872 (BRAF p.V600E) | Homo sapiens, SW900, read-out: IC50 in cell proliferation assay, cell line SW900 | Homo sapiens, SW948, read-out: IC50 in cell proliferation assay, cell line SW948 | Homo sapiens, SW982, read-out: IC50 in cell proliferation assay, cell line SW982 (BRAF p.V600E) | Homo sapiens, SW-620, read-out: IC50 in cell proliferation assay, cell line SW620 | Homo sapiens, TCC-SUP, read-out: IC50 in cell proliferation assay, cell line TCCSUP | Homo sapiens, THP-1, read-out: IC50 in cell proliferation assay, cell line THP-1 | Homo sapiens, U2OS, read-out: IC50 in cell proliferation assay, cell line U2OS | Homo sapiens, U-87 MG, read-out: IC50 in cell proliferation assay, cell line U-87MG ATCC | Homo sapiens, U-118-MG, read-out: IC50 in cell proliferation assay, cell line U-118MG | Hs766T, read-out: IC50 in cell proliferation assay, Hs 766T cell line | read-out: IC50 in cell proliferation assay, 11-18 cell line (EGFR p.L858R) | read-out: IC50 in cell proliferation assay, cell line 5637 | read-out: IC50 in cell proliferation assay, cell line A-388 | read-out: IC50 in cell proliferation assay, cell line DB | read-out: IC50 in cell proliferation assay, cell line ES-2 (BRAF p.V600E) | read-out: IC50 in cell proliferation assay, cell line PC-3 | read-out: IC50 in cell proliferation assay, cell line RD | read-out: IC50 in cell proliferation assay, cell line RKO (BRAF p.V600E) | read-out: IC50 in cell proliferation assay, cell line RL | read-out: IC50 in cell proliferation assay, cell line SR (NPM1-ALK) | read-out: IC50 in cell proliferation assay, cell line T24 | read-out: IC50 in cell proliferation assay, cell line TT (RET p.C634W) | read-out: IC50 in cell proliferation assay, cell line VA-ES-BJ
0.135 µM: Homo sapiens, T98G, read-out: IC50 in cell proliferation assay, cell line T98G
3.99 µM: Homo sapiens, MOLM-13, read-out: IC50 in cell proliferation assay, MOLM-13 cell line (FLT3 ITD)
0.02 µM: Homo sapiens, NCI-H716, read-out: IC50 in cell proliferation assay, cell line NCI-H716 (FGFR2-COL14A1)
4 µM: Homo sapiens, Rec1, read-out: IC50 in cell proliferation assay, cell line REC-1
0.028 µM: Homo sapiens, SNU-16, read-out: IC50 in cell proliferation assay, cell line SNU-16 (FGFR2 amplification)
2.15 µM: read-out: IC50 in cell proliferation assay, cell line PA-1
4.47 µM: Homo sapiens, SK-N-SH, read-out: IC50 in cell proliferation assay, cell line SK-N-SH (ALK p.F1174L)
2.57 µM: Homo sapiens, MV4-11, read-out: IC50 in cell proliferation assay, MV4-11 cell line (FLT3 ITD)
